Measurements from patent publication US11266662B2, “Ganaxolone for use in prophylaxis and treatment of postpartum depression” (Marinus Pharmaceuticals, Inc., priority 2018, dated 2022).
Where “and” joins values, the source holds several entries; their conditions need not be identical. Identical values can stand only once. Entries after “also recorded” stand apart in the source; their conditions may differ.

What was measured:
[1] = system: rats; test: IV toxicity in rats, 14 days; settings: continuous IV dosing for 14 days
[2] = IV toxicity in rats, 14 days; settings: rat, in vivo, iv
[3] = system: women with postpartum depression; test: Phase 2A study: safety and tolerability (adverse events); format: in vivo, human
[4] = system: rabbits; test: Local tolerance study in rabbits; settings: rabbit, in vivo
[5] = In vitro haemolysis / human plasma compatibility
[6] = system: children and adolescents with fragile X syndrome; settings: in those with higher baseline anxiety; Ligsay et al, 2017; cited from earlier work
[7] = Phase 1 study of IV ganaxolone in healthy volunteers (safety, pharmacokinetics, sedation); format: in vivo, human
Procedure: The safety, pharmacokinetics and pharmacodynamics of IV ganaxolone were investigated in healthy 36 volunteers, in which ganaxolone was administered as a bolus dosing (Stage 1) or as a bolus dose followed by a continuous infusion (Stage 2). Ten of the 36 subjects enrolled were women. Stage 1 enrolled and dosed subjects in 4 cohorts (A-D): 6 subjects in Cohort A (10 mg ganaxolone IV bolus in 3 subjects and 30 mg ganaxolone bolus in 3 subjects over 5-minutes), 8 subjects in Cohort B (20 mg ganaxolone bolus over 2-minutes), 8 subjects in Cohort C (30 mg ganaxolone bolus over 1-hour) and 8 subjects in Cohort D (10 mg ganaxolone bolus over 1-hour). Cohorts B, C and D included 2 placebo subjects in each cohort. Stage 2 of the study dosed a total of 6 subjects with a 6 mg bolus followed by a 4-hour infusion at 20 mg/h. Ten of the 36 subjects enrolled in the study were women.
A Phase 1 study in healthy volunteers investigating the safety of IV ganaxolone, infusion of 30 mg/hr for 1 hour, 20 mg over 2 minutes and 20 mg/hr for 4 hours led to peak concentrations of 258, 441 and 215 ng/mL, respectively, without any safety concerns. Sedation was assessed using the Modified Observers Assessment of Alertness/Sedation (MOAAS) scale. On this scale, score 5 indicates no sedation (responds readily to name spoken in normal tone) while score 1 indicates deep sedation (responds only after painful trapezius squeeze). […] The sedation scores reversed quickly after the infusion was stopped. The highest bolus dose tested was 30 mg, which was infused over 5-minutes. This dose led to peak concentration levels (Cmax) of >1,000 ng/mL with no safety concerns (except sedation).

[8] = system: mouse model of posttraumatic stress disorder (PTSD); settings: Pinna and Rasmussen, 2014; cited from earlier work
[9] = system: rats or mice; test: Reproductive and developmental toxicity
[10] = system: women with postpartum depression; test: Phase 2A study Cohort 6: efficacy (HAM-D17, CGI-I, EPDS, STAI6) versus placebo; format: in vivo, human; settings: for Placebo-adjusted difference, HAM-D17 (LS Mean), early efficacy / Placebo-adjusted difference, HAM-D17 (LS Mean), late efficacy: Cohort 6: IV 20 mg/hr for 6 h then 900 mg orally for 28 days; for Placebo-adjusted difference, HAM-D17 (LS Mean), late efficacy: Day 29
Procedure: Approximately 10-30 subjects are randomized into each cohort.
The primary efficacy endpoint is HAM-D17 total score change from baseline to 60 hours post-infusion (on Day 3) for Cohorts 1-3 and to Day 29 for Cohort 6. The primary analysis in each cohort is done using the mITT set. Although the trial is not powered for inferential analysis and there is no consideration for control of type 1 error across multiple cohorts, a clinically meaningful numeric difference in means of 3-4 points, based on mITT analysis, between ganaxalone and placebo treatment groups is considered an indication of acceptable efficacy and is be the most influential outcome in the overall assessment of the efficacy of ganaxolone in treating PPD.
The trial also evaluates the following secondary endpoints at each post-baseline data collection time point to provide additional evidence of the efficacy of ganaxolone in treating PPD: • Change from baseline in HAM-D17 total score other than at 60 hours post-infusion (on Day 3) for Cohorts 1-3 and to Day 29 for Cohort 6 • Change from baseline in EPDS total score • Change from baseline in STAI6 • CGI-I. Exploratory Endpoints

[11] = IV bolus plus continuous IV infusion toxicity in dog, 28 days; settings: in vivo
[12] = system: female rats; test: Pulmonary safety pharmacology in female rats; format: in vivo, rat; settings: doses up to 40 mg/kg
Procedure: Safety pharmacology studies were conducted with ganaxolone.

[13] = system: CYP3A4/5; test: Ganaxolone levels in subjects taking strong CYP inducers (carbamazepine and phenytoin); settings: with strong CYP inducers (carbamazepine and phenytoin)

## CC(=O)[C@H]1CC[C@H]2[C@@H]3CC[C@H]4C[C@](C)(O)CC[C@]4(C)[C@H]3CC[C@]12C [ganaxolone, 3α-hydroxy-3β-methyl-5α-pregnan-20-one]
[1]
  Clinical pathology parameters or histopathology: no ganaxolone-related changes
[2]; female
  NOAEL at 14 days: 30 mg/kg/day
[2]; male
  NOAEL at 14 days: 42 mg/kg/day
[3]; Cohort 1: IV 4 mg/hr for 48 h then 2 mg/hr for 12 h, 9 subjects
  Serious adverse events or adverse events leading to discontinuation: no serious adverse events or adverse events leading to discontinuation
[3]; Cohort 6
  DC for AE: 0 n (%)
  Incidence of dizziness: 25%
  Serious adverse events or adverse events leading to treatment discontinuation: no serious adverse events or adverse events leading to treatment discontinuation
  TEAE somnolence: 0 n (%)
[3]; Cohort 6: IV 20 mg/hr for 6 hours and 900 mg orally with dinner
  Incidence of somnolence and sedation: > 30% and 31.3%
[3]; Cohort 6, 900 mg orally with dinner, after Day 2
  Tolerability of oral administration: well tolerated
[4]
  Local tolerance: no findings
[5]
  Haemolysis: did not cause haemolysis; also recorded: did not cause hemolysis
[6]
  Anxiety, hyperactivity and attention: reduced anxiety and hyperactivity and improved attention
[7]; 20 mg over 2 minutes
  Peak concentration: 441 ng/mL
[7]; 20 mg/hr for 4 hours
  Peak concentration: 215 ng/mL
[7]; Stages 1 and 2
  Treatment emergent AEs, seriousness and intensity: None of the treatment emergent AEs were serious, and all were of mild intensity
[7]; human, in vivo, intravenous, bolus infusion of 30 mg over 5-minutes, read-out: Peak concentration levels (Cmax)
  Cmax: > 1000 ng/mL
[7]; infusion of 30 mg/hr for 1 hour
  Peak concentration: 258 ng/mL
[7]; score 5 = no sedation, 1 = deep sedation
  Modified Observers Assessment of Alertness/Sedation (MOAAS) score: vast majority of the scores were 5
[8]
  Aggression and social isolation-induced anxiety-like behaviour: decreased aggression and social isolation-induced anxiety-like behaviour
[9]; rats
  Fertility and early embryonic development: no effects on fertility and early embryonic development
[9]; rats or mice
  Teratogenicity: not teratogenic
[10]; Cohort 6
  EPDS and STAI6 versus placebo: numeric advantage at all timepoints till Day 29
[10]; PP, 6 hours
  Placebo-adjusted difference, HAM-D17 (LS Mean), early efficacy: −3.4
[10]; PP, Day 2
  Placebo-adjusted difference, HAM-D17 (LS Mean), early efficacy: −2.7
[10]; PP
  Placebo-adjusted difference, HAM-D17 (LS Mean), late efficacy: −2.6
[10]; mITT, 6 hours
  Placebo-adjusted difference, HAM-D17 (LS Mean), early efficacy: −2.8
[10]; mITT, Day 2
  Placebo-adjusted difference, HAM-D17 (LS Mean), early efficacy: −2.6
[10]; mITT
  Placebo-adjusted difference, HAM-D17 (LS Mean), late efficacy: +1
[10]; Cohort 6, after Day 2
  HAMD17 change from baseline, PP analysis and sensitivity by site analyses: favors GNX
[10]; Cohort 6, at 6 hours and on Day2, both mITT, PP
  HAMD17 decrease versus placebo: favor ganaxolone
[10]; Cohort 6, both mITT, PP, early timepoint
  CGI-I decrease versus placebo: favors GNX
[10]; Cohort 6, mITT
  HAMD17 mITT analysis at late and intermediate timepoints during oral treatment: not different from placebo
[10]; Cohort 6, mITT and PP, Day 2, Day 8, Day 15, Day 29 (p<0.05)
  CGI-I versus placebo: favors GNX at all timepoints
[11]
  NOAEL at 28 days: 7.2 mg/kg/day
[12]
  Pulmonary effects: No pulmonary effects were observed
[13]
  Lowering in overall ganaxolone levels and exposure: ~45%
